The values below come from patent publication US20190225650A1, “PEPTIDOMIMETIC MACROCYCLES AND USE THEREOF IN REGULATING HIF1ALPHA” (AILERON THERAPEUTICS, INC., priority 2013, published 2019).

This test deals with T1, flag-tagged HIF1α (AA 786-826) / His6-tagged p300 (AA 323-423) complex (Homo sapiens, UniProt Q09472).
T1 construct: His6-tagged p300 (AA 323-423); made in house; host or cells: E. coli (pETDuet vector)
Kind of test: HIF1α p300 displacement assay (TR FRET, +CHAPS). Type of test: binding. The settings on record: read-out: IC50 (nM) (HIF1α_p300 Displacement + CHAPS). The protocol: The ability of peptides to displace HIF1α c-terminal trans-activation domain from p300-CH was measured by a TR FRET assay. A complex of flag-tagged HIF1α (AA 786-826) and His6-tagged p300 (AA 323-423) was co-expressed using pETDuet vector (EMDMillipore, Bellrica Mass.) and purified from E. coli in the presence of 0.1 mM ZnSO4. The complex was diluted to 300 nM final in complete assay media and competitor peptides were added. The complete assay media contained 150 mM NaCl (Sigma +S5150 or equivalent), 20 mM HEPES pH 7.4 (Boston Bioproducts, Ashland, Mass.; #BB-2076), 7.5 mM CHAPS (Thermo #28300 or equivalent), and 1 mM DTT. Protein and peptide were incubated at room temperature for 1 hour before the addition of anti-Flag-K and anti-6×HIS-D2 (CisBio, Bedford Mass.) HTRF reconstitution buffer (50 mM Phosphate pH 7, 0.8 Potassium Flouride, BSA 0.2%)^1 to a final concentration of 0.5 μM and 4 nM respectively. The reaction continued for an additional two hours at room temperature. The reaction was read on a TECAN F500 plate reader with settings recommended by CisBio. The ratio of donor to acceptor fluorescence was calculated. The resulting data was analyzed with Graphpad Prism 5.0. IC50 values were calculated for both proteins using the One Site Fit-LogIC50 equation and presented in the column “IC50 (nM) (HIF1α_p300 Displacement+CHAPS)” of Table 6. ^1 Cisbio USA, Bedford, Mass.; 61HISDLB (lot 007A), 61FG2KLB (024A), HTRF Buffer (62RB3RDF)

Each structure is given as a SMILES string. Bridge positions count the residues as written; N and C are the ends. Square brackets hold non-standard residues; d marks the D form. Peptide text beside a SMILES is read from it. R8 = C=CCCCCCC[C@@](C)(N)C(=O)O; S5 = C=CCCC[C@](C)(N)C(=O)O; Nle = CCCC[C@H](N)C(=O)O

Turning to `CCCC[C@H](NC(=O)[C@H](CC(C)C)NC(=O)[C@@H](NC(=O)[C@H](CCC(=O)O)NC(=O)[C@H](CCC(=O)O)NC(=O)[C@H](CC(=O)O)NC(=O)[C@@H](NC(=O)[C@H](CC(N)=O)NC(=O)[C@@H](NC(=O)[C@H](CCC(N)=O)NC(=O)[C@H](CC(=O)O)NC(=O)[C@H](CC(C)C)NC(=O)[C@H](C)NC(=O)[C@H](CCCNC(=N)N)NC(=O)[C@]1(C)CCCC=CCCC[C@](C)(NC(=O)[C@H](CCC(N)=O)NC(=O)[C@H](CC(C)C)NC(=O)[C@H](CC(C)C)NC(C)=O)C(=O)N[C@@H](CCC(=O)O)C(=O)N[C@@H](CCC(=O)O)C(=O)N[C@@H](CC(C)C)C(=O)N1)C(C)C)[C@@H](C)CC)C(C)C)C(=O)N[C@@]1(C)CCCC=CCCC[C@@](C)(C(=O)N[C@@H](CCCC)C(=O)N[C@@H](C)C(=O)N[C@@H](CC(C)C)C(N)=O)NC(=O)[C@H]([C@@H](C)CC)NC(=O)[C@H](C(C)C)NC(=O)[C@H](CC(C)C)NC1=O` [SP-370] (Ac-LLQ[S5]EEL[S5]RALDQVNIDEEVL[Nle][S5]LVI[S5][Nle]AL-NH2; staple 4-8, 23-27), the IC50 was > 700 nM.

For `CCCC[C@@H]1NC(=O)[C@H](CC(C)C)NC(=O)[C@](C)(NC(=O)[C@H](CCC(=O)O)NC(=O)[C@H](CCC(=O)O)NC(=O)[C@H](CC(=O)O)NC(=O)[C@@H](NC(=O)[C@H](CC(N)=O)NC(=O)[C@@H](NC(=O)[C@H](CCC(N)=O)NC(=O)[C@]2(C)CCCC=CCCC[C@](C)(NC(=O)[C@H](CC(C)C)NC(=O)[C@H](CCC(=O)O)NC(=O)[C@H](CCC(=O)O)NC(=O)CNC(=O)[C@H](CCC(N)=O)NC(=O)[C@H](CC(C)C)NC(=O)[C@H](CC(C)C)NC(C)=O)C(=O)N[C@@H](CCCNC(=N)N)C(=O)N[C@@H](C)C(=O)N[C@@H](CC(C)C)C(=O)N2)C(C)C)[C@@H](C)CC)CCCCCCC=CCCC[C@@](C)(C(=O)N[C@@H](CCCC)C(=O)NCC(N)=O)NC(=O)[C@H]([C@@H](C)CC)NC(=O)[C@H](C(C)C)NC(=O)[C@H](CC(C)C)NC(=O)[C@H](CO)NC1=O` [SP-331] (Ac-LLQGEEL[S5]RAL[S5]QVNIDEE[R8]L[Nle]SLVI[S5][Nle]G-NH2; staple 8-12, 20-27), the IC50 was > 700 nM.

As to `CC[C@H](C)[C@H](NC(=O)[C@H](Cc1ccccc1)NC(C)=O)C(=O)N[C@@H](CC(=O)O)C(=O)N[C@@H](CCC(=O)O)C(=O)N[C@]1(C)CCCCCCC=CCCC[C@@](C)(C(=O)N[C@@H](CCC(=O)O)C(=O)N[C@@H](CCSC)C(=O)NCC(N)=O)NC(=O)[C@H](C(C)C)NC(=O)[C@H](CC(C)C)NC(=O)[C@H](CO)NC(=O)[C@H](C)NC(=O)[C@H](CC(C)C)NC(=O)[C@H](C(C)C)NC1=O` [SP-184] (Ac-FIDE[R8]VLASLV[S5]EMG-NH2; staple 5-12), the IC50 is > 700 nM.

In the case of `CCCC[C@H](NC(=O)[C@H](CCC(=O)O)NC(=O)[C@]1(C)CCCC=CCCCCCC[C@@](C)(NC(=O)[C@H](C)NC(=O)[C@H](C)NC(=O)[C@@H](NC(=O)[C@H](CC(N)=O)NC(=O)[C@@H](NC(=O)[C@]2(C)CCCC=CCCCCCC[C@@](C)(NC(=O)[C@H](C)NC(=O)CNC(=O)[C@H](CCC(N)=O)NC(=O)[C@H](CC(C)C)NC(=O)[C@H](CC(C)C)NC(C)=O)C(=O)N[C@@H](CC(C)C)C(=O)N[C@@H](CC(C)C)C(=O)N[C@@H](CCCNC(=N)N)C(=O)N[C@@H](C)C(=O)N[C@@H](CC(C)C)C(=O)N[C@@H](C)C(=O)N2)C(C)C)[C@@H](C)CC)C(=O)N[C@@H](C(C)C)C(=O)N[C@@H](CC(C)C)C(=O)N[C@@H](CCCC)C(=O)N[C@@H](CO)C(=O)N[C@@H](CC(C)C)C(=O)N[C@@H](C(C)C)C(=O)N1)C(N)=O` [SP-356] (Ac-LLQGA[R8]LLRALA[S5]VNIAA[R8]VL[Nle]SLV[S5]E[Nle]-NH2; staple 6-13, 19-26), the IC50 is > 700 nM.

Turning to `CCCC[C@@H]1NC(=O)[C@H](CC(C)C)NC(=O)[C@H](C(C)C)NC(=O)[C@@](C)(NC(=O)[C@H](CCC(=O)O)NC(=O)[C@H](CC(=O)O)NC(=O)[C@@H](NC(=O)[C@H](Cc2ccccc2)NC(C)=O)[C@@H](C)CC)CCCC=CCCCC2(CCCC=CCCC[C@](C)(C(=O)N[C@@H](CCCC)C(=O)N[C@@H](C)C(=O)N[C@@H](CC(C)C)C(N)=O)NC(=O)[C@H]([C@@H](C)CC)NC(=O)[C@H](C(C)C)NC(=O)[C@H](CC(C)C)NC2=O)NC1=O` (stereo partly shown) [SP-204], the IC50 was > 700 nM.

Turning to `CCCC[C@@H]1NC(=O)[C@](C)(NC(=O)[C@@H](NC(=O)[C@H](CCC(=O)O)NC(=O)[C@H](CCC(=O)O)NC(=O)[C@H](CC(=O)O)NC(=O)[C@@H](NC(=O)[C@H](CC(N)=O)NC(=O)[C@@H](NC(=O)[C@H](CCC(N)=O)NC(=O)[C@]2(C)CCCC=CCCC[C@](C)(NC(=O)[C@H](CC(C)C)NC(=O)[C@H](CCC(=O)O)NC(=O)[C@H](CCC(=O)O)NC(=O)CNC(=O)[C@H](CCC(N)=O)NC(=O)[C@H](CC(C)C)NC(=O)[C@H](CC(C)C)NC(C)=O)C(=O)N[C@@H](CCCNC(=N)N)C(=O)N[C@@H](C)C(=O)N[C@@H](CC(C)C)C(=O)N2)C(C)C)[C@@H](C)CC)C(C)C)CCCCCCC=CCCC[C@@](C)(C(=O)NCC(N)=O)NC(=O)[C@H](CCC(=O)O)NC(=O)[C@H]([C@@H](C)CC)NC(=O)[C@H](C(C)C)NC(=O)[C@H](CC(C)C)NC(=O)[C@H](CO)NC1=O` [SP-316] (Ac-LLQGEEL[S5]RAL[S5]QVNIDEEV[R8][Nle]SLVIE[S5]G-NH2; staple 8-12, 21-28), the IC50 is > 700 nM.

Consider `CCCC[C@H](NC(=O)[C@H](CCC(=O)O)NC(=O)[C@@H](NC(=O)[C@]1(C)CCCC=CCCC[C@](C)(NC(=O)[C@@H](NC(=O)[C@H](CCC(=O)O)NC(=O)[C@H](CCC(=O)O)NC(=O)[C@H](CC(=O)O)NC(=O)[C@@H](NC(=O)[C@H](CC(N)=O)NC(=O)[C@@H](NC(=O)[C@H](CCC(N)=O)NC(=O)[C@H](CC(=O)O)NC(=O)[C@H](CC(C)C)NC(=O)[C@H](C)NC(=O)[C@H](CCCNC(=N)N)NC(=O)[C@]2(C)CCCC=CCCC[C@](C)(NC(=O)[C@H](CCC(N)=O)NC(=O)[C@H](CC(C)C)NC(=O)[C@H](CC(C)C)NC(C)=O)C(=O)N[C@@H](CCC(=O)O)C(=O)N[C@@H](CCC(=O)O)C(=O)N[C@@H](CC(C)C)C(=O)N2)C(C)C)[C@@H](C)CC)C(C)C)C(=O)N[C@@H](CCCC)C(=O)N[C@@H](CO)C(=O)N[C@@H](CC(C)C)C(=O)N1)[C@@H](C)CC)C(=O)NCC(N)=O` [SP-302] (Ac-LLQ[S5]EEL[S5]RALDQVNIDEEV[S5][Nle]SL[S5]IE[Nle]G-NH2; staple 4-8, 21-25), for which the IC50 was > 700 nM.

On to `CCCC[C@H](NC(=O)[C@]1(C)CCCC=CCCC[C@](C)(NC(=O)[C@H](CCCC)NC(=O)[C@H](CC(C)C)NC(=O)[C@@H](NC(=O)[C@H](C)NC(=O)[C@H](C)NC(=O)[C@H](C)NC(=O)[C@@H](NC(=O)[C@H](CC(N)=O)NC(=O)[C@@H](NC(=O)[C@]2(C)CCCC=CCCCCCC[C@@](C)(NC(=O)[C@H](C)NC(=O)CNC(=O)[C@H](CCC(N)=O)NC(=O)[C@H](CC(C)C)NC(=O)[C@H](CC(C)C)NC(C)=O)C(=O)N[C@@H](CC(C)C)C(=O)N[C@@H](CC(C)C)C(=O)N[C@@H](CCCNC(=N)N)C(=O)N[C@@H](C)C(=O)N[C@@H](CC(C)C)C(=O)N[C@@H](C)C(=O)N2)C(C)C)[C@@H](C)CC)C(C)C)C(=O)N[C@@H](CC(C)C)C(=O)N[C@@H](C(C)C)C(=O)N[C@@H]([C@@H](C)CC)C(=O)N1)C(N)=O` [SP-348] (Ac-LLQGA[R8]LLRALA[S5]VNIAAAVL[Nle][S5]LVI[S5][Nle]-NH2; staple 6-13, 23-27), for which the IC50 is > 700 nM.

For `CCCC[C@H](NC(=O)[C@H](Cc1ccccc1)NC(=O)[C@@H](NC(=O)[C@H](CCC(=O)O)NC(=O)[C@H](CCC(=O)O)NC(=O)[C@H](CC(=O)O)NC(=O)[C@@H](NC(=O)[C@H](Cc1ccccc1)NC(C)=O)[C@@H](C)CC)C(C)C)C(=O)N[C@@]1(C)CCCC=CCCC[C@@](C)(C(=O)N[C@@H](CCCC)C(=O)N[C@@H](C)C(=O)N[C@@H](CC(C)C)C(=O)N[C@@H](CC(C)C)C(N)=O)NC(=O)[C@H]([C@@H](C)CC)NC(=O)[C@H](C(C)C)NC(=O)[C@H](CC(C)C)NC1=O` [SP-242] (Ac-FIDEEVF[Nle][S5]LVI[S5][Nle]ALL-NH2; staple 9-13), the IC50 was ≤ 200 nM.

Consider `CCCC[C@@H]1NC(=O)[C@](C)(NC(=O)[C@@H](NC(=O)[C@H](CCC(=O)O)NC(=O)[C@H](CCC(=O)O)NC(=O)[C@H](CC(=O)O)NC(=O)[C@@H](NC(=O)[C@H](CC(N)=O)NC(=O)[C@@H](NC(=O)[C@H](CCC(N)=O)NC(=O)[C@H](CC(=O)O)NC(=O)[C@H](CC(C)C)NC(=O)[C@]2(C)CCCC=CCCC[C@](C)(NC(=O)[C@H](CCC(=O)O)NC(=O)CNC(=O)[C@H](CCC(N)=O)NC(=O)[C@H](CC(C)C)NC(=O)[C@H](CC(C)C)NC(C)=O)C(=O)N[C@@H](CC(C)C)C(=O)N[C@@H](CC(C)C)C(=O)N[C@@H](CCCNC(=N)N)C(=O)N2)C(C)C)[C@@H](C)CC)C(C)C)CCCCCCC=CCCC[C@@](C)(C(=O)NCC(N)=O)NC(=O)[C@H](CCC(=O)O)NC(=O)[C@H]([C@@H](C)CC)NC(=O)[C@H](C(C)C)NC(=O)[C@H](CC(C)C)NC(=O)[C@H](CO)NC1=O` [SP-315] (Ac-LLQGE[S5]LLR[S5]LDQVNIDEEV[R8][Nle]SLVIE[S5]G-NH2; staple 6-10, 21-28), for which the IC50 was > 700 nM.

One may read the IC50 as the midpoint of a concentration-inhibition curve.
